Assay results from ChEMBL document CHEMBL3046449, “Selective Herbicidal Activities of Ethyl 5-(4, 6-Dimethoxypyrimidin-2-ylcarbamoylsulfamoyl)-1-methylpyrazole-4-carboxylate and Its Related Compounds” (J Pestic Sci, 1990).

What was measured:
[1] = system: Schoenoplectiella juncoides; experiment: Herbicidal activity against Schoenoplectiella juncoides assessed as weed control in transplanted rice field at 30 g/ha treated after 10 days transplanting; format: functional
[2] = system: Schoenoplectiella juncoides; experiment: Herbicidal activity against Schoenoplectiella juncoides assessed as weed control in transplanted rice field at 30 g/ha treated after 7 days transplanting; format: functional
[3] = system: Oryza sativa; experiment: Effect on Oryza sativa (rice) plant growth in transplanted Oryza sativa field assessed as plant height at 30 g/ha treated after 3 days transplanting; format: organism-based; conditions: in vivo, other, 72 h
[4] = system: Echinochloa crus-galli; experiment: Herbicidal activity against Echinochloa crus-galli (barnyard grass) assessed as weed control in transplanted rice field at 30 g/ha treated after 10 days transplanting; format: functional
[5] = system: Oryza sativa; experiment: Effect on Oryza sativa (rice) plant growth in transplanted Oryza sativa field assessed as plant height at 20 g/ha treated after 7 days transplanting; format: organism-based; conditions: in vivo, other, 168 h
[6] = system: Schoenoplectiella juncoides; experiment: Herbicidal activity against two-leaf stage Schoenoplectiella juncoides assessed as growth inhibition treated 7 to 15 days after planting measured by postemergence activity assay; format: functional
[7] = system: Oryza sativa; experiment: Effect on Oryza sativa (rice) plant growth in transplanted Oryza sativa field assessed as number of tillers at 30 g/ha treated after 10 days transplanting; format: organism-based; conditions: in vivo, other, 240 h
[8] = system: Cyperus serotinus; experiment: Herbicidal activity against Cyperus serotinus assessed as weed control in transplanted rice field at 30 g/ha treated after 15 days transplanting; format: functional
[9] = system: Sagittaria pygmaea; experiment: Herbicidal activity against Sagittaria pygmaea assessed as growth inhibition measured after 2 days by pre-emergence activity assay; format: functional
[10] = system: unidentified; experiment: Herbicidal activity against broadleaf weed assessed as weed control in transplanted rice field at 30 g/ha treated after 3 days transplanting; format: functional
[11] = system: Schoenoplectiella juncoides; experiment: Herbicidal activity against Schoenoplectiella juncoides assessed as weed control in transplanted rice field at 20 g/ha treated after 3 days transplanting; format: functional
[12] = system: Pontederia vaginalis; experiment: Herbicidal activity against Monochoria vaginalis assessed as weed control in transplanted rice field at 30 g/ha treated after 10 days transplanting; format: functional
[13] = system: Schoenoplectiella juncoides; experiment: Herbicidal activity against Schoenoplectiella juncoides assessed as weed control in transplanted rice field at 30 g/ha treated after 3 days transplanting; format: functional
[14] = system: Sagittaria pygmaea; experiment: Herbicidal activity against Sagittaria pygmaea assessed as weed control in transplanted rice field at 20 g/ha treated after 7 days transplanting; format: functional
[15] = system: Pontederia vaginalis; experiment: Herbicidal activity against Monochoria vaginalis assessed as growth inhibition measured after 2 days by preemergence activity assay; format: functional
[16] = system: Echinochloa crus-galli; experiment: Herbicidal activity against Echinochloa crus-galli (barnyard grass) assessed as weed control in transplanted rice field at 30 g/ha treated after 7 days transplanting; format: functional
[17] = system: Echinochloa crus-galli; experiment: Herbicidal activity against 1.5 leaf stage Echinochloa crus-galli (barnyard grass) assessed as growth inhibition treated 7 to 15 days after planting measured by postemergence activity assay; format: functional
[18] = system: Cyperus serotinus; experiment: Herbicidal activity against Cyperus serotinus assessed as weed control in transplanted rice field at 20 g/ha treated after 3 days transplanting; format: functional
[19] = system: Echinochloa crus-galli; experiment: Herbicidal activity against Echinochloa crus-galli (barnyard grass) assessed as growth inhibition measured after 2 days by preemergence activity assay; format: functional
[20] = system: Sagittaria pygmaea; experiment: Herbicidal activity against Sagittaria pygmaea assessed as weed control in transplanted rice field at 20 g/ha treated after 3 days transplanting; format: functional
[21] = system: Cyperus serotinus; experiment: Herbicidal activity against three to four-leaf stage Cyperus serotinus assessed as growth inhibition treated 7 to 15 days after planting measured by postemergence activity assay; format: functional
[22] = system: unidentified; experiment: Herbicidal activity against broadleaf weed assessed as weed control in transplanted rice field at 30 g/ha treated after 15 days transplanting; format: functional
[23] = system: Oryza sativa; experiment: Effect on Oryza sativa (rice) plant growth in transplanted Oryza sativa field assessed as number of tillers at 20 g/ha treated after 7 days transplanting; format: organism-based; conditions: in vivo, other, 168 h
[24] = system: unidentified; experiment: Herbicidal activity against broadleaf weed assessed as weed control in transplanted rice field at 30 g/ha treated after 10 days transplanting; format: functional
[25] = system: Rotala indica; experiment: Herbicidal activity against Rotala indica assessed as growth inhibition in paddy condition under greenhouse at 5 g/ha measured after 18 days by preemergence activity assay; format: functional; conditions: pre-emergence, 432 h, read-out: GI
[26] = system: Oryza sativa; experiment: Effect on Oryza sativa (rice) plant growth in transplanted Oryza sativa field assessed as number of tillers at 30 g/ha treated after 15 days transplanting; format: organism-based; conditions: in vivo, other, 360 h
[27] = system: Echinochloa crus-galli; experiment: Herbicidal activity against Echinochloa crus-galli (barnyard grass) assessed as growth inhibition in paddy condition under greenhouse at 5 g/ha measured after 18 days by preemergence activity assay; format: functional; conditions: pre-emergence, 432 h, read-out: GI
[28] = system: Sagittaria pygmaea; experiment: Herbicidal activity against two-leaf stage Sagittaria pygmaea assessed as growth inhibition treated 7 to 15 days after planting measured by post-emergence activity assay; format: functional
[29] = system: Echinochloa crus-galli; experiment: Herbicidal activity against Echinochloa crus-galli (barnyard grass) assessed as weed control in transplanted rice field at 30 g/ha treated after 3 days transplanting; format: functional
[30] = system: Sagittaria pygmaea; experiment: Herbicidal activity against Sagittaria pygmaea assessed as weed control in transplanted rice field at 30 g/ha treated after 7 days transplanting; format: functional
[31] = system: Oryza sativa; experiment: Effect on Oryza sativa (rice) plant growth in transplanted Oryza sativa field assessed as plant height at 30 g/ha treated after 10 days transplanting; format: organism-based; conditions: in vivo, other, 240 h
[32] = system: Schoenoplectiella juncoides; experiment: Herbicidal activity against Schoenoplectiella juncoides assessed as growth inhibition measured after 2 days by preemergence activity assay; format: functional
[33] = system: Cyperus serotinus; experiment: Herbicidal activity against Cyperus serotinus assessed as weed control in transplanted rice field at 30 g/ha treated after 3 days transplanting; format: functional
[34] = system: Pontederia vaginalis; experiment: Herbicidal activity against Monochoria vaginalis assessed as weed control in transplanted rice field at 20 g/ha treated after 7 days transplanting; format: functional
[35] = system: unidentified; experiment: Herbicidal activity against broadleaf weed assessed as weed control in transplanted rice field at 20 g/ha treated after 7 days transplanting; format: functional
[36] = system: Schoenoplectiella juncoides; experiment: Herbicidal activity against Schoenoplectiella juncoides assessed as weed control in transplanted rice field at 20 g/ha treated after 7 days transplanting; format: functional
[37] = system: Alisma canaliculatum; experiment: Herbicidal activity against Alisma canaliculatum assessed as growth inhibition measured after 2 days by pre-emergence activity assay; format: functional
[38] = system: Pontederia vaginalis; experiment: Herbicidal activity against Monochoria vaginalis assessed as weed control in transplanted rice field at 30 g/ha treated after 3 days transplanting; format: functional
[39] = system: Oryza sativa; experiment: Effect on Oryza sativa (rice) plant growth in transplanted Oryza sativa field assessed as number of tillers at 30 g/ha treated after 3 days transplanting; format: organism-based; conditions: in vivo, other, 72 h
[40] = Herbicidal activity against broadleaf weed assessed as weed control in transplanted rice field at 20 g/ha treated after 3 days transplanting; format: functional
[41] = system: Oryza sativa; experiment: Effect on Oryza sativa (rice) plant growth in transplanted Oryza sativa field assessed as number of tillers at 30 g/ha treated after 7 days transplanting; format: organism-based; conditions: in vivo, other, 168 h
[42] = system: Sagittaria pygmaea; experiment: Herbicidal activity against Sagittaria pygmaea assessed as weed control in transplanted rice field at 30 g/ha treated after 3 days transplanting; format: functional
[43] = system: Cyperus serotinus; experiment: Herbicidal activity against Cyperus serotinus assessed as weed control in transplanted rice field at 20 g/ha treated after 7 days transplanting; format: functional
[44] = system: Eleocharis kuroguwai; experiment: Herbicidal activity against Eleocharis kuroguwai assessed as growth inhibition measured after 2 days by pre-emergence activity assay; format: functional
[45] = system: Pontederia vaginalis; experiment: Herbicidal activity against Monochoria vaginalis assessed as weed control in transplanted rice field at 20 g/ha treated after 3 days transplanting; format: functional
[46] = system: Pontederia vaginalis; experiment: Herbicidal activity against three to five-leaf stage Monochoria vaginalis assessed as growth inhibition treated 7 to 15 days after planting measured by postemergence activity assay; format: functional

CCOC(=O)c1cnn(C)c1S(=O)(=O)NC(=O)Nc1nc(OC)cc(OC)n1 [PYRAZOSULFURON ETHYL]
Activity [1]: 93% | Activity [2]: 100% | Activity [3]: 104% | Activity [4]: 90% | Activity [5]: 107% | I75 [6]: 13 gAi/ha | Activity [7]: 101% | Activity [8]: 97% | I75 [9]: 1.9 gAi/ha | Activity [10]: 100% | Activity [11]: 97% | Activity [12]: 93% | Activity [13]: 100% | Activity [14]: 98% | I75 [15]: 2.7 gAi/ha | Activity [16]: 98% | I75 [17]: 18 gAi/ha | Activity [18]: 98% | I75 [19]: 13 gAi/ha | Activity [20]: 95% | I75 [21]: 1.9 gAi/ha | Activity [22]: 100% | Activity [23]: 96% | Activity [24]: 100% | inhibition of growth at 5 g/ha [25]: > 90% | Activity [26]: 105% | inhibition of growth at 5 g/ha [27]: 40% | I75 [28]: 2.7 gAi/ha | Activity [29]: 97% | Activity [30]: 98% | Activity [31]: 102% | I75 [32]: 8.3 gAi/ha | Activity [33]: 100% | Activity [34]: 100% | Activity [35]: 100% | Activity [36]: 100% | I75 [37]: 2.1 gAi/ha | Activity [38]: 100% | Activity [39]: 99% | Activity [40]: 100% | Activity [41]: 100% | Activity [42]: 97% | Activity [43]: 100% | I75 [44]: 1.9 gAi/ha | Activity [45]: 100% | I75 [46]: 2.7 gAi/ha
